# Results as given in patent publication US8129398B2 (priority 2008, dated 2012).
# Target: T1, HIV-integrase (Human immunodeficiency virus type 1 group M subtype B, UniProt P12497)
# T1 construct: Recombinant integrase (0.26 ng) was incubated with the beads
# Assay: HIV-Integrase Inhibition Activity (SPA bead integration assay with P33 labeled target DNA)
# Type: biochemical
# Conditions: recombinant integrase, class symbols; read-out: in vitro activity
# How it was run: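 Biotinylated substrate DNA on streptavidin SPA beads loaded with recombinant integrase (90 min, 37° C), washed, then inhibitor plus 0.1 fmol P33-labeled target DNA added. Reaction stopped with 10 mM EDTA; integration measured as CPM by scintillation, giving IC50 ranks.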
row,SMILES,IC50 [nM]
1,"CS(=O)(=O)N1[C@@H]2C[C@@H]2C[C@H]1C(=O)NC12CCC(CC1)Cn1c2nc(C(=O)NCc2ccc(F)cc2)c(O)c1=O [Example 294, 7,10-Ethanopyrimido[1,2-a]azepine-2-carboxamide, N-[(4-fluorophenyl)methyl]-4,6,7,8,9,10-hexahydro-3-hydroxy-10-[[[(1R,3S,5R)-2-(methylsulfonyl)-2-azabicyclo[3.1.0]hex-3-yl]carbonyl]amino]-4-oxo-]",< 10
2,"CO[C@H]1C[C@@H](C(=O)NC23CCC(CC2)Cn2c3nc(C(=O)NCc3ccc(F)c(C)c3)c(O)c2=O)N(C(=O)c2cc(C)n(C)n2)C1 [Example 295, 7,10-Ethanopyrimido[1,2-a]azepine-2-carboxamide, 10-[[[(2S,4S)-1-[(1,5-dimethyl-1H-pyrazol-3-yl)carbonyl]-4-methoxy-2-pyrrolidinyl]carbonyl]amino]-N-[(4-fluoro-3-methylphenyl)methyl]-4,6,7,8,9,10-hexahydro-3-hydroxy-4-oxo-]",< 10
3,"CO[C@H]1C[C@@H](C(=O)NC23CCC(CC2)Cn2c3nc(C(=O)NCc3ccc(F)c(C)c3)c(O)c2=O)N(C(=O)c2cc(C)on2)C1 [Example 296, 7,10-Ethanopyrimido[1,2-a]azepine-2-carboxamide, N-[(4-fluoro-3-methylphenyl)methyl]-4,6,7,8,9,10-hexahydro-3-hydroxy-10-[[[(2S,4S)-4-methoxy-1-[(5-methyl-3-isoxazolyl)carbonyl]-2-pyrrolidinyl]carbonyl]amino]-4-oxo-]",< 10
4,"CO[C@H]1C[C@@H](C(=O)NC23CCC(CC2)Cn2c3nc(C(=O)NCc3ccc(F)c(C)c3)c(O)c2=O)N(C(=O)c2nnc(C)o2)C1 [Example 297, 7,10-Ethanopyrimido[1,2-a]azepine-2-carboxamide, N-[(4-fluoro-3-methylphenyl)methyl]-4,6,7,8,9,10-hexahydro-3-hydroxy-10-[[[(2S,4S)-4-methoxy-1-[(5-methyl-1,3,4-oxadiazol-2-yl)carbonyl]-2-pyrrolidinyl]carbonyl]amino]-4-oxo-]",< 10
5,"CO[C@H]1C[C@@H](C(=O)NC23CCC(CC2)Cn2c3nc(C(=O)NCc3ccc(F)c(C)c3)c(O)c2=O)N(C(=O)c2nccn2C)C1 [Example 298, 7,10-Ethanopyrimido[1,2-a]azepine-2-carboxamide, N-[(4-fluoro-3-methylphenyl)methyl]-4,6,7,8,9,10-hexahydro-3-hydroxy-10-[[[(2S,4S)-4-methoxy-1-[(1-methyl-1H-imidazol-2-yl)carbonyl]-2-pyrrolidinyl]carbonyl]amino]-4-oxo-]",< 10
6,"CO[C@H]1C[C@@H](C(=O)NC23CCC(CC2)Cn2c3nc(C(=O)NCc3ccc(F)c(C)c3)c(O)c2=O)N(C(=O)c2ncn(C)n2)C1 [Example 299, 7,10-Ethanopyrimido[1,2-a]azepine-2-carboxamide, N-[(4-fluoro-3-methylphenyl)methyl]-4,6,7,8,9,10-hexahydro-3-hydroxy-10-[[[(2S,4S)-4-methoxy-1-[(1-methyl-1H-1,2,4-triazol-3-yl)carbonyl]-2-pyrrolidinyl]carbonyl]amino]-4-oxo-]",< 10
7,"C=C[C@H]1C[C@@]1(NC(C)=O)C(=O)NC12CCC(CC1)Cn1c2nc(C(=O)NCc2ccc(F)c(C)c2)c(O)c1=O [Example 300, 7,10-Ethanopyrimido[1,2-a]azepine-2-carboxamide, 10-[[[(1S,2R)-1-(acetylamino)-2-ethenylcyclopropyl]carbonyl]amino]-N-[(4-fluoro-3-methylphenyl)methyl]-4,6,7,8,9,10-hexahydro-3-hydroxy-4-oxo-]",< 10
8,"Cc1cc(CNC(=O)c2nc3n(c(=O)c2O)CC2CCC3(NC(=O)[C@H]3CCN(C(=O)c4cc(C)n(C)n4)C3)CC2)ccc1F [Example 301, 7,10-Ethanopyrimido[1,2-a]azepine-2-carboxamide, 10-[[[(3S)-1-[(1,5-dimethyl-1H-pyrazol-3-yl)carbonyl]-3-pyrrolidinyl]carbonyl]amino]-N-[(4-fluoro-3-methylphenyl)methyl]-4,6,7,8,9,10-hexahydro-3-hydroxy-4-oxo-]",10 to 100
9,"COCC1(C(=O)NC23CCC(CC2)Cn2c3nc(C(=O)NCc3ccc(F)c(C)c3)c(O)c2=O)CC1 [Example 302, 7,10-Ethanopyrimido[1,2-a]azepine-2-carboxamide, N-[(4-fluoro-3-methylphenyl)methyl]-4,6,7,8,9,10-hexahydro-3-hydroxy-10-[[[1-(methoxymethyl)cyclopropyl]carbonyl]amino]-4-oxo-]",< 10
10,"Cc1cc(CNC(=O)c2nc3n(c(=O)c2O)CC2CCC3(NC(=O)C3(c4ccccn4)CC3)CC2)ccc1F [Example 304, 7,10-Ethanopyrimido[1,2-a]azepine-2-carboxamide, N-[(4-fluoro-3-methylphenyl)methyl]-4,6,7,8,9,10-hexahydro-3-hydroxy-4-oxo-10-[[[1-(2-pyridinyl)cyclopropyl]carbonyl]amino]-]",< 10
11,"Cc1cc(CNC(=O)c2nc3n(c(=O)c2O)CC2CCC3(NC(=O)C3=NNC(=O)CC3)CC2)ccc1F [Example 305, 7,10-Ethanopyrimido[1,2-a]azepine-2-carboxamide, N-[(4-fluoro-3-methylphenyl)methyl]-4,6,7,8,9,10-hexahydro-3-hydroxy-4-oxo-10-[[(1,4,5,6-tetrahydro-6-oxo-3-pyridazinyl)carbonyl]amino]-]",< 10
12,"CN(C)C(=O)C(=O)NC12CCC(CC1)Cn1c2nc(C(=O)NCc2ccc(F)cc2-c2ccccc2)c(O)c1=O [Example 307, Ethanediamide, N′-[2-[[[(5-fluoro/[1,1′-biphenyl]-2-yl)methyl]amino]carbonyl]-6,7,8,9-tetrahydro-3-hydroxy-4-oxo-7,10-ethanopyrimido[1,2-a]azepin-10(4H)-yl]-N,N-dimethyl-]",< 10
13,"COc1c(C(=O)NCc2ccc(F)cc2)nc2n(c1=O)CC1CCC2(NC(=O)CCC(=O)O)CC1 [Example 308, Butanoic acid, 4-[[2-[[[(4-fluorophenyl)methyl]amino]carbonyl]-6,7,8,9-tetrahydro-3-methoxy-4-oxo-7,10-ethanopyrimido[1,2-a]azepin-10(4H)-yl]amino]-4-oxo-]",> 100
14,"Cc1cc(CNC(=O)c2nc3n(c(=O)c2O)CC2CCC3(NC(=O)c3ccncc3)CC2)ccc1F [Example 309, 7,10-Ethanopyrimido[1,2-a]azepine-2-carboxamide, N-[(4-fluoro-3-methylphenyl)methyl]-4,6,7,8,9,10-hexahydro-3-hydroxy-4-oxo-10-[(4-pyridinylcarbonyl)amino]-]",< 10
15,"CN(C(=O)c1ccncc1)C12CCC(CC1)Cn1c2nc(C(=O)NCc2ccc(F)cc2)c(O)c1=O [Example 310, 7,10-Ethanopyrimido[1,2-a]azepine-2-carboxamide, N-[(4-fluorophenyl)methyl]-4,6,7,8,9,10-hexahydro-3-hydroxy-10-[methyl(4-pyridinylcarbonyl)amino]-4-oxo-]",< 10
16,"O=C(NC12CCC(CC1)Cn1c2nc(C(=O)NCc2ccc(F)cc2)c(O)c1=O)c1ncccn1 [Example 311, 7,10-Ethanopyrimido[1,2-a]azepine-2-carboxamide, N-[(4-fluorophenyl)methyl]-4,6,7,8,9,10-hexahydro-3-hydroxy-4-oxo-10-[(2-pyrimidinylcarbonyl)amino]-]",< 10
